Data: article PMC6979384, “Characterization of the plant homeodomain (PHD) reader family for their histone tail interactions” (Epigenetics & Chromatin, 2020)
Where no end group is shown, it is not given here. [ ]: non-standard residue; d: D form. Lys(Me3) = C[N+](C)(C)CCCC[C@H](N)C(=O)O

What was measured:
Experiment in all cases: Histone peptide microarray
Assay type in all cases: binding, human
Details in all cases: total n = 4
AIRE (PP) = test system: AIRE (PP)
Summary of the method: (§1)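 Steps: express and purify GST-tagged PHD reader; incubate 0.5 μM protein on a peptide microarray (293 histone peptides, single or combined PTMs) following an optimized protocol; average signal across 4 replicates.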

BAZ2B = test system: BAZ2B
Summary of the method: as §1

BPTF (PB) = test system: BPTF (PB)
Summary of the method: as §1

CHD4 (PPCC) = test system: CHD4 (PPCC)
Summary of the method: as §1

CHD5 (PCC) = test system: CHD5 (PCC)
Summary of the method: as §1

CHD5 (PPCC) = test system: CHD5 (PPCC)
Summary of the method: as §1

DIDO1 = test system: DIDO1
Summary of the method: as §1

DPF2 (PPC2W2) = test system: DPF2 (PPC2W2)
Summary of the method: as §1

ING1 = test system: ING1
Summary of the method: as §1

ING2 = test system: ING2
Summary of the method: as §1

ING3 = test system: ING3
Summary of the method: as §1

ING4 = test system: ING4
Summary of the method: as §1

ING5 = test system: ING5
Summary of the method: as §1

KDM4C (TTP) = test system: KDM4C (TTP)
Summary of the method: as §1

KDM5A (1) = test system: KDM5A (1)
Summary of the method: as §1

KDM5A (3) = test system: KDM5A (3)
Summary of the method: as §1

KDM5B (1) = test system: KDM5B (1)
Summary of the method: as §1

KDM5B (3) = test system: KDM5B (3)
Summary of the method: as §1

KDM7A = test system: KDM7A
Summary of the method: as §1

MLL5 = test system: MLL5
Summary of the method: as §1

MORC3 (CW) = test system: MORC3 (CW)
Summary of the method: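 GST-PHD reader, 0.5 μM, probed on 293-peptide histone array (single/combinatorial PTMs); optimized array protocol; signal = mean ± SD, n = 4.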

PHF13 = test system: PHF13
Summary of the method: as §1

PHF21A = test system: PHF21A
Summary of the method: as §1

PHF23 = test system: PHF23
Summary of the method: as §1

PHF2 = test system: PHF2
Summary of the method: as §1

PHF8 = test system: PHF8
Summary of the method: as §1

PHRF1 (RP) = test system: PHRF1 (RP)
Summary of the method: as §1

RAG2 = test system: RAG2
Summary of the method: as §1

SP140L = test system: SP140L
Summary of the method: as §1

TAF3 = test system: TAF3
Summary of the method: as §1

TRIM66 (PB) = test system: TRIM66 (PB)
Summary of the method: as §1

[1] = sheet "Array Heatmap", GST-tagged reader, histone peptide array

Substance: H3K4me2 + K9ac + K18ac: H3 1-20
- Array Heatmap signal (histone peptide microarray) (AIRE (PP); GST-tagged AIRE (PP), sheet Array Heatmap, each array performed twice): 0.3953
- Array Heatmap signal (histone peptide microarray) (BAZ2B; GST-tagged BAZ2B, sheet Array Heatmap, each array performed twice): 0.4481
- Array Heatmap signal (histone peptide microarray) (BPTF (PB); GST-tagged BPTF (PB = PHD + Bromodomain), sheet Array Heatmap, each array performed twice): 0.3833
- Array Heatmap signal (histone peptide microarray) (CHD4 (PPCC); GST-tagged CHD4 (PPCC = Dual PHD + Dual Chromodomain), sheet Array Heatmap, each array performed twice): 0.5347
- Array Heatmap signal (histone peptide microarray) (CHD5 (PCC); GST-tagged CHD5 (PCC = PHD + Dual Chromodomain), sheet Array Heatmap, each array performed twice): 0.7098
- Array Heatmap signal (histone peptide microarray) (CHD5 (PPCC); GST-tagged CHD5 (PPCC = Dual PHD + Dual Chromodomain), sheet Array Heatmap, each array performed twice): 0.5253
- Array Heatmap signal (histone peptide microarray) (DIDO1; GST-tagged DIDO1, sheet Array Heatmap, each array performed twice): 0.8235
- Array Heatmap signal (histone peptide microarray) (DPF2 (PPC2W2); GST-tagged DPF2 (PPC2W2 = Dual PHD + C2W2-type Zn-finger), sheet Array Heatmap, each array performed twice): 0.6346
- Array Heatmap signal (histone peptide microarray) (ING1; GST-tagged ING1, sheet Array Heatmap, each array performed twice): 0.6509
- Array Heatmap signal (histone peptide microarray) (ING2; GST-tagged ING2, sheet Array Heatmap, each array performed twice): 0.7129
- Array Heatmap signal (histone peptide microarray) (ING3; GST-tagged ING3, sheet Array Heatmap, each array performed twice): 0.5192
- Array Heatmap signal (histone peptide microarray) (ING4; GST-tagged ING4, sheet Array Heatmap, each array performed twice): 0.4671
- Array Heatmap signal (histone peptide microarray) (ING5; GST-tagged ING5, sheet Array Heatmap, each array performed twice): 0.3511
- Array Heatmap signal (histone peptide microarray) (KDM4C (TTP); GST-tagged KDM4C (TTP = Tandem Tudor domain + PHD), sheet Array Heatmap, each array performed twice): 0.4492
- Array Heatmap signal (histone peptide microarray) (KDM5A (1); GST-tagged KDM5A (1), sheet Array Heatmap, each array performed twice): 0.4202
- Array Heatmap signal (histone peptide microarray) (KDM5A (3); GST-tagged KDM5A (3), sheet Array Heatmap, each array performed twice): 0.7199
- Array Heatmap signal (histone peptide microarray) (KDM5B (1); GST-tagged KDM5B (1), sheet Array Heatmap, each array performed twice): 0.595
- Array Heatmap signal (histone peptide microarray) (KDM5B (3); GST-tagged KDM5B (3), sheet Array Heatmap, each array performed twice): 0.5774
- Array Heatmap signal (histone peptide microarray) (KDM7A; GST-tagged KDM7A, sheet Array Heatmap, each array performed twice): 0.3188
- Array Heatmap signal (histone peptide microarray) (MLL5; GST-tagged MLL5, sheet Array Heatmap, each array performed twice): 0.5921
- Array Heatmap signal (histone peptide microarray) (MORC3 (CW); GST-tagged MORC3 (CW = CW-type Zn-finger), sheet Array Heatmap, each array performed twice): 0.6581
- Array Heatmap signal (histone peptide microarray) (PHF13; GST-tagged PHF13, sheet Array Heatmap, each array performed twice): 0.5893
- Array Heatmap signal (histone peptide microarray) (PHF21A; GST-tagged PHF21A, sheet Array Heatmap, each array performed twice): 0.4382
- Array Heatmap signal (histone peptide microarray) (PHF23; GST-tagged PHF23, sheet Array Heatmap, each array performed twice): 0.6826
- Array Heatmap signal (histone peptide microarray) (PHF2; GST-tagged PHF2, sheet Array Heatmap, each array performed twice): 0.8135
- Array Heatmap signal (histone peptide microarray) (PHF8; GST-tagged PHF8, sheet Array Heatmap, each array performed twice): 0.4748
- Array Heatmap signal (histone peptide microarray) (PHRF1 (RP); GST-tagged PHRF1 (RP), sheet Array Heatmap, each array performed twice): 0.5931
- Array Heatmap signal (histone peptide microarray) (RAG2; GST-tagged RAG2, sheet Array Heatmap, each array performed twice): 0.3927
- Array Heatmap signal (histone peptide microarray) (SP140L; GST-tagged SP140L, sheet Array Heatmap, each array performed twice): 0.3079
- Array Heatmap signal (histone peptide microarray) (TAF3; GST-tagged TAF3, sheet Array Heatmap, each array performed twice): 0.4004
- Array Heatmap signal (histone peptide microarray) (TRIM66 (PB); GST-tagged TRIM66 (PB = PHD + Bromodomain), sheet Array Heatmap, each array performed twice): 0.6398

Substance: H3K4me2 + T6p: H3 1-20
- Array Heatmap signal, AIRE (PP) (AIRE (PP); [1]): 0.3956
- Array Heatmap signal, BAZ2B (BAZ2B; [1]): 0.3939
- Array Heatmap signal, BPTF (PB) (BPTF (PB); [1]): 0.3354
- Array Heatmap signal, CHD4 (PPCC) (CHD4 (PPCC); [1]): 0.5639
- Array Heatmap signal, CHD5 (PCC) (CHD5 (PCC); [1]): 0.7961
- Array Heatmap signal, CHD5 (PPCC) (CHD5 (PPCC); [1]): 0.4881
- Array Heatmap signal, DIDO1 (DIDO1; [1]): 0.7205
- Array Heatmap signal, DPF2 (PPC2W2) (DPF2 (PPC2W2); [1]): 0.6113
- Array Heatmap signal, ING1 (ING1; [1]): 0.5538
- Array Heatmap signal, ING2 (ING2; [1]): 0.6785
- Array Heatmap signal, ING3 (ING3; [1]): 0.4685
- Array Heatmap signal, ING4 (ING4; [1]): 0.4083
- Array Heatmap signal, ING5 (ING5; [1]): 0.3133
- Array Heatmap signal, KDM4C (TTP) (KDM4C (TTP); [1]): 0.4526
- Array Heatmap signal, KDM5A (1) (KDM5A (1); [1]): 0.3957
- Array Heatmap signal, KDM5A (3) (KDM5A (3); [1]): 0.5519
- Array Heatmap signal, KDM5B (1) (KDM5B (1); [1]): 0.6237
- Array Heatmap signal, KDM5B (3) (KDM5B (3); [1]): 0.4514
- Array Heatmap signal, KDM7A (KDM7A; [1]): 0.3717
- Array Heatmap signal, MLL5 (MLL5; [1]): 0.5839
- Array Heatmap signal, MORC3 (CW) (MORC3 (CW); [1]): 0.4606
- Array Heatmap signal, PHF13 (PHF13; [1]): 0.5699
- Array Heatmap signal, PHF21A (PHF21A; [1]): 0.4239
- Array Heatmap signal, PHF23 (PHF23; [1]): 0.5061
- Array Heatmap signal, PHF2 (PHF2; [1]): 0.5776
- Array Heatmap signal, PHF8 (PHF8; [1]): 0.3931
- Array Heatmap signal, PHRF1 (RP) (PHRF1 (RP); [1]): 0.4464
- Array Heatmap signal, RAG2 (RAG2; [1]): 0.2424
- Array Heatmap signal, SP140L (SP140L; [1]): 0.3405
- Array Heatmap signal, TAF3 (TAF3; [1]): 0.2971
- Array Heatmap signal, TRIM66 (PB) (TRIM66 (PB); [1]): 0.586

Substance: H3K4me3 (1-7): H3 1-7 (ART[Lys(Me3)]QTA; UniProt P68431 2-8, looked up, fragment)
- Array Heatmap value (peptide array signal) (AIRE (PP); AIRE (PP), sheet "Array Heatmap", each array performed twice): 0.5351
- Array Heatmap value (peptide array signal) (BAZ2B; BAZ2B, sheet "Array Heatmap", each array performed twice): 0.5069
- Array Heatmap value (peptide array signal) (BPTF (PB); BPTF (PB), sheet "Array Heatmap", each array performed twice): 0.3708
- Array Heatmap value (peptide array signal) (CHD4 (PPCC); CHD4 (PPCC), sheet "Array Heatmap", each array performed twice): 0.5649
- Array Heatmap value (peptide array signal) (CHD5 (PCC); CHD5 (PCC), sheet "Array Heatmap", each array performed twice): 0.8146
- Array Heatmap value (peptide array signal) (CHD5 (PPCC); CHD5 (PPCC), sheet "Array Heatmap", each array performed twice): 0.5698
- Array Heatmap value (peptide array signal) (DIDO1; DIDO1, sheet "Array Heatmap", each array performed twice): 0.6423
- Array Heatmap value (peptide array signal) (DPF2 (PPC2W2); DPF2 (PPC2W2), sheet "Array Heatmap", each array performed twice): 0.6324
- Array Heatmap value (peptide array signal) (ING1; ING1, sheet "Array Heatmap", each array performed twice): 0.5185
- Array Heatmap value (peptide array signal) (ING2; ING2, sheet "Array Heatmap", each array performed twice): 0.6464
- Array Heatmap value (peptide array signal) (ING3; ING3, sheet "Array Heatmap", each array performed twice): 0.472
- Array Heatmap value (peptide array signal) (ING4; ING4, sheet "Array Heatmap", each array performed twice): 0.4911
- Array Heatmap value (peptide array signal) (ING5; ING5, sheet "Array Heatmap", each array performed twice): 0.4084
- Array Heatmap value (peptide array signal) (KDM4C (TTP); KDM4C (TTP), sheet "Array Heatmap", each array performed twice): 0.5656
- Array Heatmap value (peptide array signal) (KDM5A (1); KDM5A (1), sheet "Array Heatmap", each array performed twice): 0.4902
- Array Heatmap value (peptide array signal) (KDM5A (3); KDM5A (3), sheet "Array Heatmap", each array performed twice): 0.5067
- Array Heatmap value (peptide array signal) (KDM5B (1); KDM5B (1), sheet "Array Heatmap", each array performed twice): 0.7094
- Array Heatmap value (peptide array signal) (KDM5B (3); KDM5B (3), sheet "Array Heatmap", each array performed twice): 0.5187
- Array Heatmap value (peptide array signal) (KDM7A; KDM7A, sheet "Array Heatmap", each array performed twice): 0.7221
- Array Heatmap value (peptide array signal) (MLL5; MLL5, sheet "Array Heatmap", each array performed twice): 0.7048
- Array Heatmap value (peptide array signal) (MORC3 (CW); MORC3 (CW), sheet "Array Heatmap", each array performed twice): 0.489
- Array Heatmap value (peptide array signal) (PHF13; PHF13, sheet "Array Heatmap", each array performed twice): 0.6272
- Array Heatmap value (peptide array signal) (PHF21A; PHF21A, sheet "Array Heatmap", each array performed twice): 0.4644
- Array Heatmap value (peptide array signal) (PHF23; PHF23, sheet "Array Heatmap", each array performed twice): 0.5369
- Array Heatmap value (peptide array signal) (PHF2; PHF2, sheet "Array Heatmap", each array performed twice): 0.4609
- Array Heatmap value (peptide array signal) (PHF8; PHF8, sheet "Array Heatmap", each array performed twice): 0.544
- Array Heatmap value (peptide array signal) (PHRF1 (RP); PHRF1 (RP), sheet "Array Heatmap", each array performed twice): 0.3886
- Array Heatmap value (peptide array signal) (RAG2; RAG2, sheet "Array Heatmap", each array performed twice): 0.3345
- Array Heatmap value (peptide array signal) (SP140L; SP140L, sheet "Array Heatmap", each array performed twice): 0.3724
- Array Heatmap value (peptide array signal) (TAF3; TAF3, sheet "Array Heatmap", each array performed twice): 0.3574
- Array Heatmap value (peptide array signal) (TRIM66 (PB); TRIM66 (PB), sheet "Array Heatmap", each array performed twice): 0.5289
